Bridge positions count the residues as written; N and C are the ends. Square brackets hold non-standard residues; d marks the D form. Peptide text beside a SMILES is read from it. Pen = CC(C)(S)[C@H](N)C(=O)O
Test: Inhibition of [3H]DPDPE binding to delta opioid receptor of guinea pig brain homogenate

Compound | IC50
CC[C@H](C)[C@@H]1NC(=O)[C@H](CCCN=C(N)N)NC(=O)[C@H](CCCN=C(N)N)NC(=O)[C@@H](NC(=O)[C@H](Cc2ccccc2)NC(=O)CNC(=O)CNC(=O)[C@@H](N)Cc2ccc(O)cc2)CSSC[C@@H](C(=O)N[C@@H](CCCN=C(N)N)C(=O)N[C@@H](CCCCN)C(N)=O)NC1=O [Tyr-Gly-Gly-Phe-c(Cys-Arg-Arg-Ile-Cys)-Arg-lys] (H-YGGFCRRICRK-NH2; disulfide 5-9) | 18 nM

Test: as above
Remark: another data set of the same source

Compound | IC50
CC[C@H](C)[C@H](NC(=O)[C@H](CCCN=C(N)N)NC(=O)[C@H](CCCN=C(N)N)NC(=O)[C@H](CC(C)C)NC(=O)[C@H](Cc1ccccc1)NC(=O)CNC(=O)CNC(=O)[C@@H](N)Cc1ccc(O)cc1)C(=O)N[C@@H](CCCN=C(N)N)C(=O)N1CCC[C@H]1C(=O)N[C@@H](CCCCN)C(=O)N[C@@H](CC(C)C)C(=O)N[C@@H](CCCCN)C(=O)O [Dynorphin A (1-13)] | 4.1 nM
CC[C@H](C)[C@@H]1NC(=O)[C@H](CCCNC(=N)N)NC(=O)[C@H](CCCNC(=N)N)NC(=O)[C@@H](NC(=O)[C@H](Cc2ccccc2)NC(=O)CNC(=O)CNC(=O)[C@@H](N)Cc2ccccc2)CSSC[C@@H](C(N)=O)NC(=O)[C@@H]2CCCN2C(=O)[C@H](CCCNC(=N)N)NC1=O [Phe-Gly-Gly-Phe-c(Cys-Arg-Arg-Ile-Arg-Pro-Cys)] (H-FGGFCRRIRPC-NH2; disulfide 5-11) | 389 nM
CC[C@H](C)[C@@H]1NC(=O)[C@H](CCCN=C(N)N)NC(=O)[C@H](CCCN=C(N)N)NC(=O)[C@@H](NC(=O)[C@H](Cc2ccccc2)NC(=O)CNC(=O)[C@@H](C)NC(=O)[C@@H](N)Cc2ccc(O)cc2)CSSC[C@@H](C(N)=O)NC(=O)[C@@H]2CCCN2C(=O)[C@H](CCCN=C(N)N)NC1=O [Tyr-(D-ala)-Gly-Phe-c(Cys-Arg-Arg-Ile-Arg-Pro-Cys)] | 107 nM
CC[C@H](C)[C@@H]1NC(=O)[C@H](CCCN=C(N)N)NC(=O)[C@H](CCCN=C(N)N)NC(=O)[C@@H](NC(=O)[C@@H]2Cc3ccccc3CN2C(=O)CNC(=O)CNC(=O)[C@@H](N)Cc2ccc(O)cc2)CSSC[C@@H](C(=O)O)NC(=O)[C@@H]2CCCN2C(=O)[C@H](CCCN=C(N)N)NC1=O [Tyr-Gly-Gly-(L-Tic)-c(Cys-Arg-Arg-Ile-Arg-Pro-Cys)] | 181 nM
CC(C)C[C@H](NC(=O)[C@H](Cc1ccccc1)NC(=O)CNC(=O)CNC(=O)[C@@H](N)Cc1ccc(O)cc1)C(=O)N[C@@H](CCCNC(=N)N)C(=O)N[C@@H](CCCNC(=N)N)C(=O)N[C@@H]1CSSC[C@H](C(=O)N[C@@H](CCCCN)C(N)=O)NC(=O)[C@H](CCCCN)NC(=O)[C@@H]2CCCN2C(=O)[C@H](CCCNC(=N)N)NC1=O [Tyr-Gly-Gly-Phe-Leu-Arg-Arg-c((D-Cys)-Arg-Pro-Lys-(D-Cys))-Lys] | 6.5 nM
CC(C)C[C@H](NC(=O)[C@H](Cc1ccccc1)NC(=O)CNC(=O)CNC(=O)[C@@H](N)Cc1ccc(O)cc1)C(=O)N[C@@H](CCCN=C(N)N)C(=O)N[C@@H](CCCN=C(N)N)C(=O)N[C@H]1CSSC[C@H](C(N)=O)NC(=O)[C@H](CC(C)C)NC(=O)[C@H](CCCCN)NC(=O)[C@@H]2CCCN2C(=O)[C@H](CCCN=C(N)N)NC1=O [Tyr-Gly-Gly-Phe-Leu-Arg-Arg-c(Cys-Arg-Pro-Lys-Leu-Cys)] | 1.9 nM
CC[C@H](C)[C@@H]1NC(=O)[C@H](CCCN=C(N)N)NC(=O)[C@H](CCCN=C(N)N)NC(=O)[C@@H](NC(=O)[C@H](Cc2ccccc2)NC(=O)CNC(=O)CNC(=O)[C@@H](N)Cc2ccc(O)cc2)C(C)(C)SSC[C@@H](C(N)=O)NC(=O)[C@@H]2CCCN2C(=O)[C@H](CCCN=C(N)N)NC1=O [Tyr-Gly-Gly-Phe-c((L-Pen)-Arg-Arg-Ile-Arg-Pro-Cys)] (H-YGGF[Pen]RRIRPC-NH2; disulfide 5-11) | 86 nM
CC[C@H](C)[C@@H]1NC(=O)[C@H](CCCNC(=N)N)NC(=O)[C@H](CCCNC(=N)N)NC(=O)[C@@H](NC(=O)[C@H](Cc2ccccc2)NC(=O)CNC(=O)CNC(=O)[C@@H](N)Cc2ccc(O)cc2)CSSC[C@@H](C(N)=O)NC(=O)[C@H](CC(C)C)NC(=O)[C@H](CCCCN)NC(=O)[C@H]2CCCN2C(=O)[C@H](CCCNC(=N)N)NC1=O [Tyr-Gly-Gly-Phe-c(Cys-Arg-Arg-Ile-Arg-(D-Pro)-Lys-Leu-Cys)] | 9.6 nM
CC[C@H](C)[C@@H]1NC(=O)[C@H](CCCN=C(N)N)NC(=O)[C@H](CCCN=C(N)N)NC(=O)[C@@H](NC(=O)[C@H](Cc2ccccc2)NC(=O)CNC(=O)CNC(=O)[C@@H](N)Cc2ccc(O)cc2)CSSC[C@@H](C(=O)N[C@@H](CCCCN)C(N)=O)NC(=O)[C@H](CCCN=C(N)N)NC1=O [Tyr-Gly-Gly-Phe-c(Cys-Arg-Arg-Ile-Arg-Cys)-lys] (H-YGGFCRRIRCK-NH2; disulfide 5-10) | 83 nM
CC[C@H](C)[C@@H]1NC(=O)[C@H](CCCN=C(N)N)NC(=O)[C@H](CCCN=C(N)N)NC(=O)[C@@H](NC(=O)[C@H](Cc2ccccc2)NC(=O)CNC(=O)CNC(=O)[C@@H](N)Cc2ccc(O)cc2)CSSC[C@@H](C(=O)N2CCC[C@H]2C(=O)N[C@@H](CCCCN)C(N)=O)NC1=O [Tyr-Gly-Gly-Phe-c(Cys-Arg-Arg-Ile-Cys)-Pro-lys] (H-YGGFCRRICPK-NH2; disulfide 5-9) | 31 nM
CC[C@H](C)[C@@H]1NC(=O)[C@H](CCCNC(=N)N)NC(=O)[C@@H](NC(=O)[C@H](CC(C)C)NC(=O)[C@H](Cc2ccccc2)NC(=O)CNC(=O)CNC(=O)[C@@H](N)Cc2ccc(O)cc2)CSSC[C@@H](C(=O)N[C@@H](CCCCN)C(N)=O)NC(=O)[C@H](CCCNC(=N)N)NC1=O [Tyr-Gly-Gly-Phe-leu-c(Cys-Arg-Ile-Arg-Cys)-lys] (H-YGGFLCRIRCK-NH2; disulfide 6-10) | 0.475 nM

Source: BindingDB's records for doi:10.1021/jm00058a012 (University of Arizona, 1993)
